We go through 2 compounds from patent US11833256B2, “Selective RARγ ligand-loaded nanoparticles for manipulation of targeted bone growth” (University Of Maryland, Baltimore, priority 2017, dated 2023).

Data set [1] concerns pSmad1/5/8-positive cells (canonical BMP signaling). Kind of data set: pSmad1/5/8 immunohistochemistry of ectopic BMP-Matrigel masses. The note with it: 4 mg/kg on day 1 and 3; samples day 5. Type of data set: in vivo, mouse. The procedure: Tissue samples were fixed in 4% paraformaldehyde overnight at 4° C., decalcified in 10% EDTA (for calcified samples only), processed for paraffin embedding, and serially sectioned at 6 μm-thickness. Sections were stained with hematoxylin and eosin (HE) for general profiling or with Alcian blue at pH 1.0 and eosin counter-staining. For immunohistochemical analysis, antigen retrieval was performed with 0.1% pepsin in 0.02 N—HCl for 10 minutes, and sections were incubated with blocking solution (0.1 M NaPB, 1% BSA and 10% normal goat serum) for 1 hour and then with primary antibodies against phospho-Smad1/5/8 (Cell Signaling Technology™, 9511, 1:100) overnight at 4° C. The antibodies were visualized using rabbit specific HRP/DAB (ABC™) detection kit (Abcam™, ab64261). After detection, sections were counter-stained with 0.5% methyl green.
There are reciprocal antagonistic relationships between the retinoid and BMP signaling pathways in several biological systems. In addition, the suppression of chondrogenesis and heterotopic ossification by RARγ agonists involved inhibition of canonical BMP signaling. Thus, it became important to determine if and how BMP signaling was affected in the various experimental approaches here. […]
First, the distribution of phosphorylated Smad1/5/8-positive cells was determined within regenerating tibial bone defect areas in wild type and RARγ-null mice (FIG. 6A). […]

The subject of data set [2] is ectopic bone formation in RARγ-null mice. Briefly: Ectopic bone formation model in RARγ-null mice. Type of data set: in vivo, mouse. The following applies: N=8. How it is done: To verify specificity of this drug action, similar ectopic bone formation experiments were carried out with RARγ-null mice treated with vehicle or one of the antagonists (CD2665) (FIG. 13E).

In data set [3] the test system is ectopic endochondral bone formation in BMP-Matrigel. Kind of data set: Ectopic bone formation model (rhBMP-2-containing Matrigel injected subcutaneously). The note with it: for biological activities in an ectopic bone formation model: mouse, in vivo; for ectopic bone formation (μCT, BV/TV): oral gavage on day 3, 5 and 7, ectopic masses collected day 12, vs vehicle. In kind it is in vivo, mouse. How it is done:
Ectopic bone formation was induced in mice according to known methods. See Shimono et al., J. Orthop. Res. 28(2):271-277, 2010. Briefly, recombinant human bone morphogenetic protein-2 (rhBMP-2; Gene Script™ Corp., Piscataway, NJ) was added to growth-factor reduced Matrigel™ (BD Bioscience™, Inc., Franklin Lakes, NJ) on ice to a final concentration of 4 µg/mL. Two hundred fifty 250 μL, rhBMP-2-containing Matrigel™ was injected into the left and right subcutaneous abdominal region of 2-month-old CD-1 female mice. Ectopic tissue samples were harvested and subjected to μCT and histological analyses.
After fixation, samples were subjected to μCT analysis using a CT35 scanner (SCANCO USA™ Inc., Southeastern, PA) at 55 kV and […] for bone volume/tissue volume (BV/TV) analysis. Normalized BV/TV means were calculated by ratios of experimental versus control values.
To further evaluate the roles of RARγ and the efficacy of RARγ antagonists on bone formation, the effects of three selective RARγ antagonists were compared with the RARγ agonist, NRX204647, using a mouse ectopic bone model. Recombinant human BMP-2 containing Matrigel™ (BMPMatrigel) was transplanted subcutaneously in the abdomens of CD-1 female mice (ectopic bone formation model). The injected BMP-Matrigel™ mixture rapidly solidified and developed endochondral bone within 10 to 12 days (see FIG. 13B).
The BMP-Matrigel™ injected mice were randomly subdivided into groups and subjected to oral gavage with vehicle corn oil, RARγ agonist or each of the 3 antagonists on day 3, 5 and 7 (see structures in FIG. 13A). The control mouse with vehicle treatment had inductive masses in the Matrigel™-injected sites (see FIG. 13B). Ectopic tissue masses were collected on day 12 and subjected to X-ray and μCT analyses. Micro-CT images of pellets harvested 12 days after implantation were taken. FIG. 13C.
Mice with Matrigel™ Pellets as described above were administered vehicle or 4 mg/kg CD2665 on day 3, 5 and 7 after BMP2-Matrigel™ transplantation by gavage, and then analyzed on Day 7 or Day 12. FIG. 14A. Separately, a second group of mice were administered vehicle or 4 mg/kg CD2665 on day 7, 9 and 11 after BMP2-Matrigel transplantation and analyzed either on day 12 or 17. Pellets were collected at the indicated time, fixed and subjected to μCT analysis (bottom row). Pellets were then sectioned and stained with Alcian blue for quantitation of cartilage (top row).
Samples were first subjected to μCT analysis and were then sectioned and stained with Alcian blue for quantification of cartilage. For each group, 3 sections each (1 mm interval of 4 independent samples) were analyzed. […] For the experiments shown in FIG. 15A, mice were administered vehicle or 4 mg/kg of CD2665 by gavage on day 3, 5 and 7 from BMP-Matrigel™ implantation and samples were collected on day 7 or 12.
To examine these later stages more closely, mice implanted with BMP-Matrigel™ were treated with a RARγ antagonist on day 7, 9 and 11, and the ectopic tissue masses were analyzed on day 12 or 17 (FIG. 15B). […] The findings reaffirm that RARγ antagonists enhance cartilage formation during the middle stages of endochondral ossification and eventually lead to increases in bone formation. For experiments in FIG. 15B, mice were administered vehicle or 4 mg/kg CD2665 by gavage on day 7, 9 and 11 from implantation and analyzed on day 12 or 17. […]
Subcutaneous transplantation of rhBMP-2 containing Matrigel™ (BMP-Matrigel™) pellets in the abdomens of 2-month-old CD-1 female mice was performed. On day 3 and 10, 5 μl of empty NP or 7c-loaded NP (7c-NP: 3.5 μg in 5 μl) were injected around the Matrigel™ pellets. Ectopic bone tissue was corrected on day 15 and subjected to μCT analysis.

Data set [4] is described as follows: Hydrophobicity of acetaminophen-capped prodrug derivative versus parent. Type of data set: physicochemical. The note with it: acetaminophen-capped derivative vs parent retinoid. The source says: In order to produce an in situ activatable, reversibly hydrophobized prodrug derivatives of a RARγ agonist, a pro-drug can be delivered in a nanoparticle formulation. […] However, the ionizable carboxylic group promotes the partitioning of the compound from the particle to the surrounding aqueous medium. […] The compound would be activatable upon release can increase the stability of the particle-cargo association and help achieve a more lasting and highly localized therapeutic effect. Such constructs are in essence mutual prodrugs or co-drugs, as they regenerate in one step the retinoid compound and acetaminophen, a biologically active “helper” agent, which can play an important supporting role in therapy.

The mark [5] stands for this setting: 4 mg/kg gavage day 3, 5, 7, analysed day 12.
Setting [6] is: 4 mg/kg gavage day 7, 9, 11, analysed day 12.

In the case of `COCCOCOc1cc2ccc(-c3ccc(C(=O)O)cc3)cc2cc1C12CC3CC(CC(C3)C1)C2` [CD2665], in data set [1], the “pSmad1/5/8-positive cells in ectopic BMP-Matrigel masses” value was “more numerous and obvious”. Besides, the “ectopic bone formation in RARγ-null mice, drug vs vehicle” value in data set [2] was “No significant differences in bone formation”. For the same compound, the “amount of cartilage in ectopic masses (Alcian blue)” value in data set [3] (4 mg/kg gavage day 3, 5, 7, analysed day 7) is “significantly higher amount of cartilage than controls”. In addition, in data set [3] (setting [5]), the “area of cartilage in ectopic masses (Alcian blue)” value was “still more abundant in treated than control samples” and the “mineralized tissue volume vs control (μCT)” value is reported as “about 2 fold”. Further, in data set [3] (setting [6]), the “amount of mineralized tissue vs control” value was “not significant” and the “cartilaginous tissue in ectopic masses” value is recorded as “more cartilaginous tissue”. The “volume of bone vs control” value in data set [3] (4 mg/kg gavage day 7, 9, 11, analysed day 17) is reported as “significantly larger volume of bone than controls”. Further, in data set [3], the “biological activities in an ectopic bone formation model” value is given as “proven biological activities” and the “ectopic bone formation (μCT, BV/TV)” value is “significantly increased the amount of detectable bone”.
With `CC1(C)CCC(C)(C)c2cc(C3(c4ccc5cc(C(=O)O)ccc5c4)SCCS3)ccc21` [MM11253], in data set [4], the “more hydrophobic derivative if modified with acetaminophen” value was 5 fold. Further, in data set [3], the “biological activities in an ectopic bone formation model” value is “proven biological activities” and the “ectopic bone formation (μCT, BV/TV)” value is given as “significantly increased the amount of detectable bone”.
